This note sets out measurements from US20260364214A1, “MULTIVALENT FIBROBLAST ACTIVATION PROTEIN LIGANDS FOR TARGETED DELIVERY APPLICATIONS” (Philochem AG, priority 2022, published 2026).

The structures appear in SMILES notation.

In one experiment the target is T1, recombinant hFAP (Homo sapiens, UniProt Q12884).
T1 sequence (Q12884 26-760 limits assumed): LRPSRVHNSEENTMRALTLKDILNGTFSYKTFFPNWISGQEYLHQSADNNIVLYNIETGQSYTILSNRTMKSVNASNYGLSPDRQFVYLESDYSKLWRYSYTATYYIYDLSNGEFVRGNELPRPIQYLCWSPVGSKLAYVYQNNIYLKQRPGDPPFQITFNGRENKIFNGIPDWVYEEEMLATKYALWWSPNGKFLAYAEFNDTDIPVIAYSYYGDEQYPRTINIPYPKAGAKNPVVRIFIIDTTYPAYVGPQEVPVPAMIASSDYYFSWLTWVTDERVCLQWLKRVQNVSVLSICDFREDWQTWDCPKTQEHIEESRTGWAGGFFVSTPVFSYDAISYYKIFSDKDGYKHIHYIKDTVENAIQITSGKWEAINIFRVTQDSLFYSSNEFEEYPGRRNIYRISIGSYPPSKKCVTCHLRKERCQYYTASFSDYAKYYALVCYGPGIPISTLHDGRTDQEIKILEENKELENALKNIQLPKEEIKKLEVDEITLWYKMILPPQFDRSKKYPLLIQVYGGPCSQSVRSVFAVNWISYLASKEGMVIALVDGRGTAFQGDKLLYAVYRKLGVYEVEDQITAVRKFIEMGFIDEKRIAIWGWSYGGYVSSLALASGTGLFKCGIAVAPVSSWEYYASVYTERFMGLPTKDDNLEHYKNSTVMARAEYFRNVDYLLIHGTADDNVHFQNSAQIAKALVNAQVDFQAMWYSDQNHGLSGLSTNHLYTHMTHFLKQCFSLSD
The experiment in a line: hFAP inhibition assay (Z-Gly-Pro-AMC substrate). It counts as biochemical. The procedure: (§1) Enzymatic activity of hFAP on the Z-Gly-Pro-AMC substrate was measured at room temperature on a microtiter plate reader, monitoring the fluorescence at an excitation wavelength of 360 nm and an emission wavelength of 465 nm. The reaction mixture contained substrate (20 μM), protein (66 μM, constant), assay buffer (50 mM Tris, 100 mM NaCl, and 1 mM EDTA, pH=7.4), and inhibitors with serial dilution from 167 nM to 80 fM, 1:2 in a total volume of 20 μL. Experiments were performed in triplicate, and the mean fluorescence values were fitted using Prism 7. The value is defined as the concentration of inhibitor required to reduce the enzyme activity by 50% after addition of the substrate [FIG. 1 and FIG. 8].
According to the same procedure, further comparative inhibition assays with trimeric binders having inter alia different lengths of linker group B and/or different payload groups C were performed with compounds Tri-ESV6-ValCit-MMAE (14), Tri-ESV6-linker-DOTAGA (13) and diastereoisomers of Tri-ESV6-DOTAGA (11, 12) [FIG. 18]. Comparative hFAP inhibition assays with tetravalent binders 10 and 29 were also performed [FIG. 20].
as §1, with “substrate.” for “substrate [FIG. 1 and FIG. 8].”
as §1, with “e) Inhibition assay with Tri-ESV6-DOTAGA, Tetra-ESV6-DOTAGA, Hexa-ESV6-DOTAGA, Octa-ESV6-DOTAGA, ESV6-L-DOTAGA and BI-ESV6-L-DOTAGA. Enzymatic” for “Enzymatic”, “substrate.” for “substrate [FIG. 1 and FIG. 8].”

The subject of the next experiment is SK-RC-52.hFAP tumors. The experiment in a line: Therapeutic efficacy, schedule optimization for combination with L19-IL2. It counts as in vivo, mouse (athymic Balb/c AnNRj-Foxn1). The conditions noted are these: 5 MBq/mouse on day 7. As for the experimental part: The anti-cancer efficacy was assessed in athymic Balb/c AnNRj-Foxn1 mice bearing SK-RC-52.hFAP tumor in the right flank. Therapy experiments started when the average volume of established tumors had reached 100-150 mm^3. Body weight of the animals and tumor volume were daily measured and recorded. Tumor dimensions were measured with an electronic caliper and tumor volume was calculated with the formula (long side, mm)×(short side, mm)×(short side, mm)×0.5. Animals were euthanized when one or more termination criterium indicated by the experimental license was reached. Prism 7 software (GraphPad Software) was used for data analysis. Different groups were treated with (i) L19-IL2 as single agent at a dose of 0.05 mg/mouse on day 8,10 and 12, (ii) ^177Lu-Tri-ESV6 as single agent at a dose of 5 MBq/mouse on day 7 (iii) ^177Lu-Tri-ESV6+L19-IL2 combination (^177Lu-Tri-ESV6 at a dose of 5 MBq/mouse on day 7 followed by three administrations of L19-IL2 at a dose 0.05 mg/mouse on day 8, 10 and 12—SCHEDULE 1—, or by three administrations of L19-IL2 at a dose 0.05 mg/mouse on day 12, 17 and 22—SCHEDULE 2—, or by a single administration of L19-IL2 at a dose 0.05 mg/mouse on day 8—SCHEDULE 3—, or by a single administration of L19-IL2 at a dose 0.05 mg/mouse on day 12—SCHEDULE 4—or (iv) saline […].

In the case of `N#C[C@@H]1CC(F)(F)CN1C(=O)CNC(=O)c1ccnc2c(NC(=O)CCC(=O)NCCNC(=O)CCOCC(COCCC(=O)NCCNC(=O)CCC(=O)Nc3cccc4c(C(=O)NCC(=O)N5CC(F)(F)C[C@H]5C#N)ccnc34)(COCCC(=O)NCCNC(=O)CCC(=O)Nc3cccc4c(C(=O)NCC(=O)N5CC(F)(F)C[C@H]5C#N)ccnc34)NC(=O)CCC(C(=O)O)N3CCN(CC(=O)O)CCN(CC(=O)O)CCN(CC(=O)O)CC3)cccc12` (stereo partly drawn) [Tri-ESV6-DOTAGA, 2,2′,2″-(10-(19-carboxy-1-((4-((2-((S)-2-cyano-4,4-difluoropyrrolidin-1-yl)-2-oxoethyl)carbamoyl)quinolin-8-yl)amino)-14,14-bis((3-((2-(4-((4-((2-((S)-2-cyano-4,4-difluoropyrrolidin-1-yl)-2-oxoethyl)carbamoyl)quinolin-8-yl)amino)-4-oxobutanamido)ethyl)amino)-3-oxopropoxy)methyl)-1,4,9,16-tetraoxo-12-oxa-5,8,15-triazanonadecan-19-yl)-1,4,7,10-tetraazacyclododecane-1,4,7-triyl)triacetic acid], the IC50 at recombinant hFAP (Z-Gly-Pro-AMC 20 μM, protein 66 μM, pH 7.4, room temperature) turned out to be 0.012 nM. Also, at recombinant hFAP (recombinant hFAP), the “IC50 / inhibitory activity, comparison in words” value was “remarkably lower IC50 compared to ESV6-DOTAGA, Bi-ESV6-DOTAGA and FAP-2286”. Further, the “lower IC50 compared to Tri-ESV6-PEG12-DOTAGA” value at recombinant hFAP (vs Tri-ESV6-PEG12-DOTAGA) is reported as ~ 1000 fold. The “improvement in IC50 as compared to Bi-ESV6-DOTAGA” value at recombinant hFAP (vs bivalent Bi-ESV6-DOTAGA) amounted to 10 fold. Moreover, the “improvement in IC50 as compared to ESV6-DOTAGA” value at recombinant hFAP (vs monovalent ESV6-DOTAGA) amounted to 43 fold.

In the case of `N#CC1CC(F)(F)CN1C(=O)CNC(=O)c1ccnc2c(NC(=O)CCC(=O)NCCNC(=O)CCOCC(COCCC(=O)NCCNC(=O)CCC(=O)Nc3cccc4c(C(=O)NCC(=O)N5CC(F)(F)CC5C#N)ccnc34)(COCCC(=O)NCCNC(=O)CCC(=O)Nc3cccc4c(C(=O)NCC(=O)N5CC(F)(F)CC5C#N)ccnc34)NC(=O)CCC(C(=O)O)N3CCN(CC(=O)[O-])CCN(CC(=O)[O-])CCN(CC(=O)[O-])CC3)cccc12.[177Lu+3]` (stereo not drawn) [^177Lu-Tri-ESV6-DOTAGA], in the experiment with SK-RC-52.hFAP tumors, the “therapeutic activity, in words” value is recorded as “dose-dependent therapeutic activity”.

In general, IC50 refers to the concentration needed to halve the response being measured.
